Tests used:
[1] = molecular target: T1, Free fatty acid receptor 3 (Homo sapiens, UniProt O14843); assay: Agonist activity at human GPCR41 transfected in HEK293 cells assessed as [35S]GTPgammaS binding by scintillation counting method; format: functional, cell-based
T1 sequence (O14843 whole entry): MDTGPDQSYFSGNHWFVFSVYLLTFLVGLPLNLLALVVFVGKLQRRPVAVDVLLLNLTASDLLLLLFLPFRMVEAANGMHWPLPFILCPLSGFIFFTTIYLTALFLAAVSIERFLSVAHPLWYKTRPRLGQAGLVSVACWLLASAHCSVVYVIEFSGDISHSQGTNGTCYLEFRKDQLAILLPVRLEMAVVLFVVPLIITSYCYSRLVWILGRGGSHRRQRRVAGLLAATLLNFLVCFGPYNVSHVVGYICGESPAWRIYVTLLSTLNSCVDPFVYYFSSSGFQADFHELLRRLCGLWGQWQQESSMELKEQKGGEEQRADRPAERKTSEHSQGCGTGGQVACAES

[2] = molecular target: T2, Free fatty acid receptor 2 (Homo sapiens, UniProt O15552); assay: Agonist activity at human GPCR43 transfected in HEK293 cells assessed as [35S]GTPgammaS binding by scintillation counting method
T2 sequence (O15552 whole entry): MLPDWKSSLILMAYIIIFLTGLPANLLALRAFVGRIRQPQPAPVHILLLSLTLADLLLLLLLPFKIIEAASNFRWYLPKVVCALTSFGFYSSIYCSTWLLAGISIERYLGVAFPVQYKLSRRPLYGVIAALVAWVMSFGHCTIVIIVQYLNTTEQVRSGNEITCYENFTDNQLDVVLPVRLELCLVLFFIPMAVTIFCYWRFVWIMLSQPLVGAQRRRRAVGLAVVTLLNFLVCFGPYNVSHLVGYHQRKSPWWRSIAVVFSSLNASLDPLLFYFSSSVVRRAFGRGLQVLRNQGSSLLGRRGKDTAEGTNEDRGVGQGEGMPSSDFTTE

Structure (SMILES)	EC50 [1] [µM]	EC50 [2] [µM]
CCCC(=O)O [BUTYRIC ACID]	12 to 274	
CCC(=O)O [PROPIONIC ACID]	12 to 274	
CC(=O)O [ACETIC ACID]	12 to 274	250 to 500

From ChEMBL document CHEMBL4028853, “Microbiota-Host Transgenomic Metabolism, Bioactive Molecules from the Inside” (J Med Chem, 2018)
